From US6734196B2, “Substituted pyridine or piperidine compounds” (Les Laboratoires Servier, priority 1999, dated 2004)

| Compound | melting point |
| --- | --- |
| C[n+]1ccccc1C1CCCCC1=O.[I-] (centres unmarked) | 151 to 153 °C |
| C[n+]1ccccc1CC(=O)c1cccc(Br)c1.[I-] | 217 to 218 °C |
| C[n+]1ccccc1CC(=O)c1ccccc1Br.[I-] | 204 to 205 °C |
| COc1ccc(C(=O)CC2CCCCN2C)cc1.I (centres unmarked) | 201 to 203 °C |
| CN1CCCCC1CC(=O)c1ccc(Br)cc1.I (centres unmarked) | 182 to 184 °C |
| CN1CCCCC1C1CCCCC1=O.I (centres unmarked) | 160 to 162 °C |
| CN1CCCCC1CC(=O)c1cccc(Br)c1.I (centres unmarked) | 134 to 136 °C |
| CN1CCCCC1CC(=O)c1ccccc1Br.I (centres unmarked) | 163.5 to 164 °C |
| C[n+]1ccccc1C=C(c1ccccc1)N1CCCC1.[I-] | 200 to 202 °C |
| C[n+]1c(C=C(c2ccccc2)N2CCOCC2)cccc1N1CCOCC1.[I-] | 214 to 216 °C |
| C[n+]1c(CC(=O)c2ccccc2)cccc1CC(=O)c1ccccc1.[I-] | 197 to 199 °C |
| COc1ccc(C(=O)Cc2cccc[n+]2C)cc1.F[P-](F)(F)(F)(F)F | 168 to 170 °C |
| Cc1ccc(C(=O)Cc2cccc(CC(=O)c3ccccc3)[n+]2C)cc1.[I-] | 205 to 206 °C |
| C[n+]1c(CC(=O)c2ccccc2)cccc1CC(=O)c1ccc(Cl)cc1.O=S(=O)([O-])C(F)(F)F | 199 to 201 °C |
| C[n+]1c(CC(=O)c2ccccc2)cccc1CC(=O)c1ccc(Cl)cc1.[I-] | 213 to 215 °C |
| C[n+]1c(CC(=O)c2ccccc2)cccc1CC(=O)c1ccc(F)cc1.[I-] | 220 to 222 °C |

| Compound | melting point |
| --- | --- |
| COc1ccc(C(=O)Cc2cccc[n+]2C)cc1.[I-] | 214 to 216 °C |
| C[n+]1c(CC(=O)c2ccccc2)cccc1CC(=O)c1ccc(Br)cc1.[I-] | 218 to 220 °C |
| C[n+]1c(CC(=O)c2ccc(Cl)cc2)cccc1CC(=O)c1ccc(Br)cc1.O=S(=O)([O-])C(F)(F)F | 226 to 228 °C |
| C[n+]1c(CC(=O)c2ccc(Cl)cc2)cccc1CC(=O)c1ccc(Br)cc1.[I-] | 226 to 227 °C |
| COc1ccc(C(=O)Cc2cccc(CC(=O)c3ccccc3)[n+]2C)cc1.O=S(=O)([O-])C(F)(F)F | 193 to 195 °C |
| COc1ccc(C(=O)Cc2cccc(CC(=O)c3ccccc3)[n+]2C)cc1.[I-] | 203 to 205 °C |
| COc1ccc(C(=O)Cc2cccc(CC(=O)c3ccc(F)cc3)[n+]2C)cc1.O=S(=O)([O-])C(F)(F)F | 208 to 210 °C |
| COc1ccc(C(=O)Cc2cccc(CC(=O)c3ccc(F)cc3)[n+]2C)cc1.[I-] | 219 to 220 °C |
| C[n+]1ccccc1CC(=O)c1ccc(Cl)cc1.F[P-](F)(F)(F)(F)F | 152 to 154 °C |
| Cc1ccc(C(=O)CC2CCCC(CC(=O)c3ccccc3)N2C)cc1.I (centres unmarked) | 192 to 193 °C |
| CN1C(CC(=O)c2ccccc2)CCCC1CC(=O)c1ccc(Cl)cc1.I (centres unmarked) | 152 to 154 °C |
| CN1C(CC(=O)c2ccccc2)CCCC1CC(=O)c1ccc(F)cc1.I (centres unmarked) | 152 to 154 °C |
| CN1C(CC(=O)c2ccc(Cl)cc2)CCCC1CC(=O)c1ccc(Br)cc1.I (centres unmarked) | 200 to 202 °C |
| C[n+]1ccccc1CC(=O)c1ccc(Cl)cc1.[I-] | 212 to 214 °C |
| C[n+]1ccccc1CC(=O)c1ccc(Br)cc1.F[P-](F)(F)(F)(F)F | 185 to 187 °C |
| C[n+]1ccccc1CC(=O)c1ccc(Br)cc1.[I-] | 222 to 224 °C |
